Here are results for two compounds from BindingDB's records for doi:10.1021/jm00064a006 (Eli Lilly, 1993).

The nature of this test: The antagonist activity measured as inhibition of LTB4 response in aggregation of neutrophils.

SMILES strings stand for the structures.

On to `CCCCCCCCCCOc1ccc2c(=O)c3cc(C(=O)O)ccc3oc2c1CCC(=O)O` [5-(2-Carboxy-ethyl)-6-decyloxy-9-oxo-9H-xanthene-2-carboxylic acid], for which the IC50 was 513 nM. In other words, the sub-micromolar range.
Under `COc1ccc(/C=C/CCCCOc2ccc3c(=O)c4cc(C(=O)O)ccc4oc3c2CCC(=O)O)cc1` [LY-210073] stands 133 nM.
